Read-outs that look alike come from different tables or passages of the source.
What was measured:
Assay in all cases: greenhouse post-emergence herbicidal test
[1] = tested on: ERICA; assay type: in vivo, Conyza canadensis; design: key to herbicidal activity against ERICA found: rating on a scale from 0 to 100; settings: post emergence
Outline: (§1)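 Greenhouse pots, loamy sand substrate (~4.6% humus, ~69.9% sand). Spray applied once plants reached 1–15 cm. Scoring 0–100, day 20.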

[2] = tested on: ALOMY; assay type: in vivo, Alopecurus myosuroides; design: key to herbicidal activity against ALOMY found: rating on a scale from 0 to 100; settings: post emergence
Outline: as §1

[3] = tested on: ECHCG; assay type: in vivo, Echinochloa crus-galli; settings: Echinochloa crus-galli, post-emergence, 480 h, read-out: herbicidal activity against ECHCG found
Outline: as §1

[4] = tested on: AMBEL; assay type: in vivo, Ambrosia artemisiifolia; design: key: rating on a scale from 0 to 100
Experimental: The culture containers used were plastic pots containing medium loamy sand with approximately 4.6% of humus and 69.9% sand as substrate. The seeds of the test plants were sown separately for each species.
For the post-emergence treatment, the test plants were grown to a plant height of from 1 to 15 cm, depending on the plant habit, and only then treated with the active compounds which had been suspended or emulsified in water. To this end, the test plants were either sown directly, and grown in the same containers, or they were first grown separately as seedlings and transplanted into the test containers a few days prior to treatment.
Depending on the species, the plants were kept at 10-25° C. and 20-35° C., respectively.
The test period extended over 1 to 3 weeks. During this time, the plants were tended and their response to the individual treatments was evaluated 20 days after treatment except mentioned otherwise.
Evaluation was carried out using a scale from 0 to 100. 100 means no emergence of the plants, or complete destruction of at least the above-ground parts, and 0 means no damage or normal course of growth.
The respective stated components A and B, and, if appropriate, C, were formulated as a 10% by weight strength emulsion concentrate and, with addition of the amount of solvent system, introduced into the spray liquor used for applying the active compound. In the examples, the solvent used was water.
In the examples below, using the method of S. R. Colby (1967) “Calculating synergistic and antagonistic responses of herbicide combinations”, Weeds 15, p. 22 ff., the value E, which is expected if the activity of the individual active compounds is only additive, was calculated. E=X+Y−(X·Y/100)

[5] = tested on: ABUTH; assay type: in vivo, Abutilon theophrast; design: key to herbicidal activity against ABUTH found: rating on a scale from 0 to 100
Outline: as §1

[6] = tested on: KCHSC; assay type: in vivo, Kochia scoparia; design: key to herbicidal activity against KCHSC found: rating on a scale from 0 to 100; settings: post emergence
Outline: (§2)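 Post-emergence greenhouse test: plants in loamy sand, sprayed at 1–15 cm height with aqueous spray liquor from 10% emulsion concentrates, kept at 10-25 °C or 20-35 °C by species. Damage scored 0–100 (100 = complete destruction), usually 20 days after treatment. Expected additive effect E from Colby: E=X+Y−(X·Y/100).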

[7] = tested on: VIOAR; assay type: in vivo, Viola arvensis; design: key to herbicidal activity against VIOAR found / herbicidal activity against VIOLA found: rating on a scale from 0 to 100; settings: post emergence
Outline: as §2

[8] = tested on: GALAP; assay type: in vivo, Galium aparine; design: key to herbicidal activity against GALAP found: rating on a scale from 0 to 100
Outline: as §2

[9] = tested on: GERDI; assay type: in vivo, Geranium dissectum; design: key to herbicidal activity against GERDI found: rating on a scale from 0 to 100; settings: post emergence
Outline: as §1

[10] = tested on: POLCO; assay type: in vivo, Polygonum convolvulus; design: key to herbicidal activity against POLCO found: rating on a scale from 0 to 100
Outline: as §2

[11] = tested on: APESV; assay type: in vivo, Apera spica-venti; design: key to herbicidal activity against APESV found: rating on a scale from 0 to 100; settings: for herbicidal activity against APESV found: single active
Outline: as §1

[12] = tested on: MATCH; assay type: in vivo, Matricaria recutita; design: key to herbicidal activity against MATCH found: rating on a scale from 0 to 100
Outline: as §1

[13] = tested on: IPOHE; assay type: in vivo, Ipomoea hederacea; settings: Ipomoea hederacea, post-emergence, 480 h, B.32 alone 6 g/ha a.i., post emergence; read-out: herbicidal activity against IPOHE found
Outline: as §2

[14] = tested on: PAPRH; assay type: in vivo, Papaver rhoeas; design: key: rating on a scale from 0 to 100; settings: B.93 alone 1.5 g/ha a.i.
Outline: as §1

[15] = post emergence, applied alone at 250 g/ha a.i.
[16] = single active, 4 g/ha a.i., post emergence
[17] = application rate a.i.: I.1 31.25 g/ha, B.100 (isoxaflutole) 12.5 g/ha, alone or as mixture (composition 1.100)
[18] = application rate a.i.: I.1 62.5 g/ha, B.100 (isoxaflutole) 12.5 g/ha, alone or as mixture (composition 1.100)
[19] = Abutilon theophrasti, post-emergence, 480 h, read-out: herbicidal activity against ABUTH found
[20] = single active, 6 g/ha a.i., post emergence
[21] = single active, 3 g/ha a.i., post emergence

CCOc1cc(Oc2ccc(C(F)(F)F)cc2Cl)ccc1[N+](=O)[O-] [B.91, oxyfluorfen]
pest or weed control at 100 g/ha ([1]; Erigeron canadensis, post-emergence, 480 h, single active, 100 g/ha a.i., read-out: herbicidal activity against ERICA found): 0% | pest or weed control at 200 g/ha ([1]; Erigeron canadensis, post-emergence, 480 h, single active, 200 g/ha a.i., read-out: herbicidal activity against ERICA found): 90% | pest or weed control at 100 g/ha ([2]; Alopecurus myosuroides, post-emergence, 480 h, single active, 100 g/ha a.i., read-out: herbicidal activity against ALOMY found): 85% | pest or weed control at 100 g/ha ([3]; single active, 100 g/ha a.i., post emergence): 60% | herbicidal activity against AMBEL found ([4]; single active, 100 g/ha a.i.): 70

CCc1cccc(C)c1N(C(=O)CCl)[C@@H](C)COC [B.134, S-metolachlor]
herbicidal activity against ERICA found ([1]; applied alone at 250 g/ha a.i.): 25 | herbicidal activity against ERICA found ([1]; applied alone at 500 g/ha a.i.): 35 | herbicidal activity against ALOMY found ([2]; applied alone at 250 g/ha a.i.): 0 | herbicidal activity against ALOMY found ([2]; applied alone at 500 g/ha a.i.): 20 | herbicidal activity against ABUTH found [5, 15]: 40 | herbicidal activity against KCHSC found ([6]; applied alone at 500 g/ha a.i.): 30 | herbicidal activity against VIOAR found ([7]; applied alone at 250 g/ha a.i.): 0 | herbicidal activity against VIOAR found ([7]; applied alone at 500 g/ha a.i.): 0 | herbicidal activity against GALAP found [8, 15]: 45 | herbicidal activity against GERDI found ([9]; applied alone at 500 g/ha a.i.): 30 | herbicidal activity against POLCO found [10, 15]: 35 | herbicidal activity against POLCO found ([10]; post emergence, applied alone at 500 g/ha a.i.): 60 | herbicidal activity against AMBEL found ([4]; applied alone at 250 g/ha a.i.): 25 | herbicidal activity against AMBEL found ([4]; applied alone at 500 g/ha a.i.): 65

Nc1cc(Cl)nc(C(=O)O)c1Cl [B.144, aminopyralid]
herbicidal activity against ABUTH found [5, 16]: 0 | herbicidal activity against APESV found ([11]; 4 g/ha a.i., post emergence): 0 | herbicidal activity against KCHSC found ([6]; single active, 4 g/ha a.i.): 0 | herbicidal activity against KCHSC found ([6]; single active, 8 g/ha a.i.): 0 | herbicidal activity against VIOLA found ([7]; single active, 4 g/ha a.i.): 0 | herbicidal activity against POLCO found [10, 16]: 98 | herbicidal activity against POLCO found ([10]; single active, 8 g/ha a.i., post emergence): 98 | herbicidal activity against AMBEL found ([4]; single active, 8 g/ha a.i.): 75

CS(=O)(=O)c1cc(C(F)(F)F)ccc1C(=O)c1cnoc1C1CC1 [B.100, isoxaflutole]
herbicidal activity against ERICA found [1, 17]: 80 | herbicidal activity against ERICA found [1, 18]: 80 | herbicidal activity against VIOAR found [7, 18]: 70 | herbicidal activity against GERDI found [9, 17]: 0 | herbicidal activity against GERDI found [9, 18]: 0 | herbicidal activity against POLCO found ([10]; post emergence, application rate a.i.: I.1 31.25 g/ha, B.100 (isoxaflutole) 12.5 g/ha, alone or as mixture (composition 1.100)): 60 | herbicidal activity against AMBEL found [4, 17]: 45 | herbicidal activity against AMBEL found [4, 18]: 45

COc1nc(C)nc(=NC(=O)NS(=O)(=O)c2ccccc2C(=O)O)[nH]1 [metsulfuron]
pest or weed control at 0.125 g/ha [3]: 0% | pest or weed control at 0.25 g/ha [3]: 25% | pest or weed control at 0.125 g/ha [5, 19]: 20% | pest or weed control at 0.25 g/ha [5, 19]: 80% | pest or weed control at 0.25 g/ha ([11]; Apera spica-venti, post-emergence, 480 h, read-out: herbicidal activity against APESV found): 30% | pest or weed control at 0.125 g/ha ([12]; Matricaria chamomilla, post-emergence, 480 h, read-out: herbicidal activity against MATCH found): 0% | pest or weed control at 0.125 g/ha ([8]; Galium aparine, post-emergence, 480 h, read-out: herbicidal activity against GALAP found): 10% | pest or weed control at 0.125 g/ha ([10]; Fallopia convolvulus, post-emergence, 480 h, read-out: herbicidal activity against POLCO found): 30% | herbicidal activity against AMBEL found ([4]; metsulfuron alone 0.125 g/ha a.i.): 0

Cc1ccc2c(c1)[C@H](Nc1nc(N)nc(C(C)F)n1)[C@@H](C)C2 (stereo partly shown) [B.178, indaziflam]
herbicidal activity against ERICA found ([1]; single active, 3 g/ha a.i.): 15 | herbicidal activity against ERICA found ([1]; single active, 6 g/ha a.i.): 60 | herbicidal activity against ABUTH found [5, 20]: 60 | herbicidal activity against APESV found ([11]; 3 g/ha a.i., post emergence): 40 | herbicidal activity against KCHSC found ([6]; single active, 3 g/ha a.i.): 15 | herbicidal activity against MATCH found [12, 21]: 35 | herbicidal activity against GALAP found [8, 21]: 65 | herbicidal activity against GALAP found [8, 20]: 60 | herbicidal activity against GERDI found ([9]; single active, 3 g/ha a.i.): 55 | herbicidal activity against GERDI found ([9]; single active, 6 g/ha a.i.): 55 | herbicidal activity against AMBEL found ([4]; single active, 6 g/ha a.i.): 70

Cc1cnc(C2=NC(=O)C(C)(C(C)C)N2)c(C(=O)O)c1 (stereo not shown) [B.32, imazapic]
pest or weed control at 6 g/ha [13]: 75% | pest or weed control at 3 g/ha ([2]; Alopecurus myosuroides, post-emergence, 480 h, B.32 alone 3 g/ha a.i., read-out: herbicidal activity against ALOMY found): 25% | pest or weed control at 6 g/ha ([5]; Abutilon theophrasti, post-emergence, 480 h, B.32 alone 6 g/ha a.i., post emergence, read-out: herbicidal activity against ABUTH found): 85% | pest or weed control at 3 g/ha ([11]; Apera spica-venti, post-emergence, 480 h, B.32 alone 3 g/ha a.i., post emergence, read-out: herbicidal activity against APESV found): 65% | pest or weed control at 6 g/ha ([11]; Apera spica-venti, post-emergence, 480 h, B.32 alone 6 g/ha a.i., post emergence, read-out: herbicidal activity against APESV found): 80% | pest or weed control at 3 g/ha ([12]; Matricaria chamomilla, post-emergence, 480 h, B.32 alone 3 g/ha a.i., post emergence, read-out: herbicidal activity against MATCH found): 0% | pest or weed control at 6 g/ha ([12]; Matricaria chamomilla, post-emergence, 480 h, B.32 alone 6 g/ha a.i., post emergence, read-out: herbicidal activity against MATCH found): 30% | pest or weed control at 3 g/ha ([10]; Fallopia convolvulus, post-emergence, 480 h, B.32 alone 3 g/ha a.i., post emergence, read-out: herbicidal activity against POLCO found): 85% | herbicidal activity against AMBEL found ([4]; B.32 alone 3 g/ha a.i.): 0 | herbicidal activity against AMBEL found ([4]; B.32 alone 6 g/ha a.i.): 65

Cc1nn(-c2cc(NS(C)(=O)=O)c(Cl)cc2Cl)c(=O)n1C(F)F [B.93, sulfentrazone]
pest or weed control at 1.5 g/ha ([2]; Alopecurus myosuroides, post-emergence, 480 h, B.93 alone 1.5 g/ha a.i., read-out: herbicidal activity against ALOMY found): 0% | pest or weed control at 1.5 g/ha ([11]; Apera spica-venti, post-emergence, 480 h, B.93 alone 1.5 g/ha a.i., post emergence, read-out: herbicidal activity against APESV found): 10% | pest or weed control at 1.5 g/ha ([12]; Matricaria chamomilla, post-emergence, 480 h, B.93 alone 1.5 g/ha a.i., post emergence, read-out: herbicidal activity against MATCH found): 0% | pest or weed control at 3 g/ha ([12]; Matricaria chamomilla, post-emergence, 480 h, B.93 alone 3 g/ha a.i., post emergence, read-out: herbicidal activity against MATCH found): 50% | pest or weed control at 6 g/ha ([12]; Matricaria chamomilla, post-emergence, 480 h, B.93 alone 6 g/ha a.i., post emergence, read-out: herbicidal activity against MATCH found): 50% | pest or weed control at 1.5 g/ha ([8]; Galium aparine, post-emergence, 480 h, B.93 alone 1.5 g/ha a.i., post emergence, read-out: herbicidal activity against GALAP found): 45% | herbicidal activity against PAPRH found [14]: 70 | pest or weed control at 3 g/ha ([10]; Fallopia convolvulus, post-emergence, 480 h, B.93 alone 3 g/ha a.i., post emergence, read-out: herbicidal activity against POLCO found): 85% | pest or weed control at 6 g/ha ([10]; Fallopia convolvulus, post-emergence, 480 h, B.93 alone 6 g/ha a.i., post emergence, read-out: herbicidal activity against POLCO found): 85% | herbicidal activity against AMBEL found ([4]; B.93 alone 1.5 g/ha a.i.): 20 | herbicidal activity against AMBEL found ([4]; B.93 alone 6 g/ha a.i.): 30

Source: US10881110B2, “Herbicidal compositions comprising isoxazolo[5,4-b]pyridines” (BASF SE, priority 2014, dated 2021)
